According to patent publication US10703757B2, “Compounds and methods for CDK8 modulation and indications therefor” (Plexxikon Inc., priority 2016, dated 2020):

How the values were obtained:
[1] = tested on: CDK8 (TCF/LEF luciferase reporter in HCT116 cells); assay: Cell based TCF/LEF reporter assay (HCT116+TCF/LEF luciferase); details: Homo sapiens, HCT-116, 24 h
Outline: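 HCT116 cells stably carrying a TCF/LEF-luciferase reporter (endogenous mutant β-catenin), seeded overnight, then exposed to serial compound dilutions for 24 h at 37 °C. Luminescence normalized to CellTiter-Fluor viability signal. % inhibition relative to DMSO and 10 uM CCT251545 controls, with IC50 from nonlinear regression.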

[2] = tested on: CDK8 (phosphorylation of STAT1 at serine 727 in A549 cells); assay: Cell based Phospho-STAT1 assay (IFNγ-stimulated A549 cells, AlphaLISA); details: Homo sapiens, A549, A549 cells, phospho-STAT1 after IFNγ stimulation
Outline: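 A549 cells given serial compound dilutions for 1 h at 37 °C, then stimulated with IFNγ at 10 ng/mL final for 30 min. Lysate STAT1 Ser727 phosphorylation measured by AlphaLISA; % inhibition vs stimulated/unstimulated DMSO controls, IC50 by nonlinear regression.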

Row | SMILES | IC50 [1] [nM] | IC50 [2] [nM]
1 | N#CC1CC=C(c2cccn3ncc(-c4ccc(OCC(O)CN5CCOCC5)cc4)c23)CC1 (centres unmarked) [Compound P-0178, 4-(3-(4-(2-hydroxy-3-morpholinopropoxy)phenyl)pyrazolo[1,5-a]pyridin-4-yl)cyclohex-3-ene-1-carbonitrile] | 0.1 to 100 | 0.1 to 100
2 | Cn1ncc2cc(-c3cnn4cccc(C5CCC(C#N)CC5)c34)ccc21 (centres unmarked) [Compound P-0337, 4-(3-(1-methyl-1H-indazol-5-yl)pyrazolo[1,5-a]pyridin-4-yl)cyclohexane-1-carbonitrile] | 0.1 to 100 | 0.1 to 100
3 | N#CC1CCC(c2cccn3ncc(-c4ccc(F)cc4)c23)CC1 (centres unmarked) [Compound P-0139, 4-(3-(4-fluorophenyl)pyrazolo[1,5-a]pyridin-4-yl)cyclohexane-1-carbonitrile] | 0.1 to 100 | 0.1 to 100
4 | CNC(=O)c1ccc2cc(-c3cnn4cccc(C5=CCC(C#N)CC5)c34)ccc2c1 (centres unmarked) [Compound P-0330, 6-(4-(4-cyanocyclohex-1-en-1-yl)pyrazolo[1,5-a]pyridin-3-yl)-N-methyl-2-naphthamide] | 0.1 to 100 | 0.1 to 100
5 | CNC(=O)c1ccc2cc(-c3cnn4cccc(C#CC(C)(C)O)c34)ccc2c1 [Compound P-0222, 6-(4-(3-hydroxy-3-methylbut-1-yn-1-yl)pyrazolo[1,5-a]pyridin-3-yl)-N-methyl-2-naphthamide] | 0.1 to 100 | 0.1 to 100
6 | Cn1ncc2cc(-c3cnn4ccnc(C5=CCC(C(N)=O)CC5)c34)ccc21 (centres unmarked) [Compound P-0136, 4-(3-(1-methyl-1H-indazol-5-yl)pyrazolo[1,5-a]pyrazin-4-yl)cyclohex-3-ene-1-carboxamide] | 0.1 to 100 | 0.1 to 100
7 | N#CC1CC=C(c2nccn3ncc(-c4ccc(OCc5ccccc5)c(F)c4)c23)CC1 (centres unmarked) [Compound P-0039, 4-(3-(4-(benzyloxy)-3-fluorophenyl)pyrazolo[1,5-a]pyrazin-4-yl)cyclohex-3-ene-1-carbonitrile] | 100 to 1000 | 100 to 1000
8 | N#CC1CC=C(c2nccn3ncc(-c4ccc(OCCOC5CCS(=O)(=O)CC5)cc4)c23)CC1 (centres unmarked) [Compound P-0057, 4-(3-(4-(2-((1,1-dioxidotetrahydro-2H-thiopyran-4-yl)oxy)ethoxy)phenyl)pyrazolo[1,5-a]pyrazin-4-yl)cyclohex-3-ene-1-carbonitrile] | 0.1 to 100 | 0.1 to 100
9 | CN(C)CCn1cc(-c2ccc(-c3cnn4ccnc(C5=CCC(C#N)CC5)c34)cc2)cn1 (centres unmarked) [Compound P-0047, 4-[3-[4-[1-(2-dimethylaminoethyl)pyrazol-4-yl]phenyl]pyrazolo[1,5-a]pyrazin-4-yl]cyclohex-3-ene-1-carbonitrile] | 0.1 to 100 | 0.1 to 100
10 | N#CCCCn1cc(-c2ccc(-c3cnn4ccnc(C5CCC(C#N)CC5)c34)cc2)cn1 (centres unmarked) [Compound P-0002, (1s,4s)-4-(3-(4-(1-(3-cyanopropyl)-1H-pyrazol-4-yl)phenyl)pyrazolo[1,5-a]pyrazin-4-yl)cyclohexane-1-carbonitrile] | 0.1 to 100 | 0.1 to 100
11 | N#CC1CCC(c2nccn3ncc(-c4ccc(-c5cnn(CCN6CCOCC6)c5)cc4)c23)CC1 (centres unmarked) [Compound P-0016, (1s,4s)-4-(3-(4-(1-(2-morpholinoethyl)-1H-pyrazol-4-yl)phenyl)pyrazolo[1,5-a]pyrazin-4-yl)cyclohexane-1-carbonitrile] | 0.1 to 100 | 0.1 to 100
12 | Cc1cncc(-c2ccc(-c3cnn4cccc(C#CC(C)(C)O)c34)cc2)c1 [Compound P-0231, 2-methyl-4-(3-(4-(5-methylpyridin-3-yl)phenyl)pyrazolo[1,5-a]pyridin-4-yl)but-3-yn-2-ol] | 100 to 1000 | 100 to 1000
13 | CC(C)(O)Cn1ncc2cc(-c3cnn4ccnc(C#CC(C)(C)C(N)=O)c34)ccc21 [Compound P-0091, 4-(3-(1-(2-hydroxy-2-methylpropyl)-1H-indazol-5-yl)pyrazolo[1,5-a]pyrazin-4-yl)-2,2-dimethylbut-3-ynamide] | 0.1 to 100 | 0.1 to 100
14 | N#CC1CCC(c2cccn3ncc(-c4ccc(N5CCOCC5)nc4)c23)CC1 (centres unmarked) [Compound P-0141, 4-(3-(6-morpholinopyridin-3-yl)pyrazolo[1,5-a]pyridin-4-yl)cyclohexane-1-carbonitrile] | 0.1 to 100 | 0.1 to 100
15 | N#CC1CC=C(c2c(-c3ccc4c(c3)CNC4=O)cnc3[nH]ccc23)CC1 (centres unmarked) [Compound P-0244, 4-(5-(1-oxoisoindolin-5-yl)-1H-pyrrolo[2,3-b]pyridin-4-yl)cyclohex-3-ene-1-carbonitrile] | 100 to 1000 | 100 to 1000
16 | Cc1cc(-c2cnn3ccnc(C4=CCC(C#N)CC4)c23)ccc1-c1cnn(CC(C)(C)O)c1 (centres unmarked) [Compound P-0024, 4-(3-(4-(1-(2-hydroxy-2-methylpropyl)-1H-pyrazol-4-yl)-3 methylphenyl)pyrazolo[1,5-a]pyrazin-4-yl)cyclohex-3-ene-1-carbonitrile] | 0.1 to 100 | 0.1 to 100

Row | SMILES | IC50 [1] [nM] | IC50 [2] [nM]
17 | CC(C)(C#Cc1cccn2ncc(-c3ccc(-c4cnn(CS(C)(=O)=O)c4)cc3)c12)C(N)=O [Compound P-0460, 2,2-dimethyl-4-(3-(4-(1-((methylsulfonyl)methyl)-1H-pyrazol-4-yl)phenyl)pyrazolo[1,5-a]pyridin-4-yl)but-3-ynamide] | 0.1 to 100 | 0.1 to 100
18 | Cn1cc(C#Cc2cnc3cccc(N4CCC5(CC4)CC(=O)NC5=O)n23)cn1 [Compound P-0238, 8-(3-((1-methyl-1H-pyrazol-4-yl)ethynyl)imidazo[1,2-a]pyridin-5-yl)-2,8-diazaspiro[4.5]decane-1,3-dione] | 0.1 to 100 | 0.1 to 100
19 | Cn1cc(-c2ccc(-c3cnn4cccc(C#C[C@@](C)(O)c5ccccc5)c34)cc2)cn1 [Compound P-0246, (S)-4-(3-(4-(1-methyl-1H-pyrazol-4-yl)phenyl)pyrazolo[1,5-a]pyridin-4-yl)-2-phenylbut-3-yn-2-ol] | 100 to 1000 | 0.1 to 100
20 | Cc1ccc(-c2cnn3ccnc(C4=CCC(C(N)=O)CC4)c23)cn1 (centres unmarked) [Compound P-0152, 4-(3-(6-methylpyridin-3-yl)pyrazolo[1,5-a]pyrazin-4-yl)cyclohex-3-ene-1-carboxamide] | 0.1 to 100 | 100 to 1000
21 | Cc1cc(C#N)cc(-c2ccc(-c3cnn4cccc(C#CC(C)(C)O)c34)cc2)c1 [Compound P-0235, 4′-(4-(3-hydroxy-3-methylbut-1-yn-1-yl)pyrazolo[1,5-a]pyridin-3-yl)-5-methyl-[1,1′-biphenyl]-3-carbonitrile] | 100 to 1000 | 100 to 1000
22 | CC(C)(C#Cc1nccn2ncc(-c3ccc4cc(NS(C)(=O)=O)ccc4c3)c12)C(N)=O [Compound P-0115, 2,2-dimethyl-4-(3-(6-(methylsulfonamido)naphthalen-2-yl)pyrazolo[1,5-a]pyrazin-4-yl)but-3-ynamide] | 0.1 to 100 | 0.1 to 100
23 | N#CC1CC=C(c2nccn3ncc(-c4ccc(-c5cnn(CC(=O)O)c5)c(F)c4)c23)CC1 (centres unmarked) [Compound P-0116, 2-(4-(4-(4-(4-cyanocyclohex-1-en-1-yl)pyrazolo[1,5-a]pyrazin-3-yl)-2-fluorophenyl)-1H-pyrazol-1-yl)acetic acid] | 100 to 1000 | 100 to 1000
24 | CC(C)(C#Cc1cccn2ncc(-c3ccc(-c4cnn(CCCC#N)c4)cc3)c12)C(N)=O [Compound P-0461, 4-(3-(4-(1-(3-cyanopropyl)-1H-pyrazol-4-yl)phenyl)pyrazolo[1,5-a]pyridin-4-yl)-2,2-dimethylbut-3-ynamide] | 0.1 to 100 | 0.1 to 100
25 | COc1ccc(-c2cnn3cccc(C4CCC(C#N)CC4)c23)cc1 (centres unmarked) [Compound P-0137, 4-(3-(4-methoxyphenyl)pyrazolo[1,5-a]pyridin-4-yl)cyclohexane-1-carbonitrile] | 0.1 to 100 | 0.1 to 100
26 | CC(C)(O)C#Cc1cccn2ncc(-c3ccc(-c4cnoc4)cc3)c12 [Compound P-0228, 4-(3-(4-(isoxazol-4-yl)phenyl)pyrazolo[1,5-a]pyridin-4-yl)-2-methylbut-3-yn-2-ol] | 1000 to 10000 | 1000 to 10000
27 | Cn1cc(-c2ccc(-c3cnc4[nH]ccc4c3C#CC(C)(C)O)cc2)cn1 [Compound P-0341, 2-methyl-4-(5-(4-(1-methyl-1H-pyrazol-4-yl)phenyl)-1H-pyrrolo[2,3-b]pyridin-4-yl)but-3-yn-2-ol] | 0.1 to 100 | 0.1 to 100
28 | Cc1ccc2cc(-c3cnn4cccc(C5=CCC(C#N)CC5)c34)ccc2n1 (centres unmarked) [Compound P-0223, 4-(3-(2-methylquinolin-6-yl)pyrazolo[1,5-a]pyridin-4-yl)cyclohex-3-ene-1-carbonitrile] | 0.1 to 100 | 0.1 to 100
29 | Cc1cc(-c2cnn3ccnc(C4CCC(C#N)CC4)c23)ccc1-c1cnn(CC(C)(C)O)c1 (centres unmarked) [Compound P-0025, (1s,4s)-4-(3-(4-(1-(2-hydroxy-2-methylpropyl)-1H-pyrazol-4-yl)-3-methylphenyl)pyrazolo[1,5-a]pyrazin-4-yl)cyclohexane-1-carbonitrile] | 0.1 to 100 | 0.1 to 100
30 | N#CCCn1cc(-c2ccc(-c3cnn4ccnc(C5=CCC(C#N)CC5)c34)cc2F)cn1 (centres unmarked) [Compound P-0030, 4-(3-(4-(1-(2-cyanoethyl)-1H-pyrazol-4-yl)-3-fluorophenyl)pyrazolo[1,5-a]pyrazin-4-yl)cyclohex-3-ene-1-carbonitrile] | 0.1 to 100 | 0.1 to 100
31 | CC(C)(O)Cn1cc(-c2ccc(-c3cnc4[nH]ccc4c3C#CC(C)(C)C(N)=O)cc2)cn1 [Compound P-0133, 4-[5-[4-[1-(2-hydroxy-2-methyl-propyl)pyrazol-4-yl]phenyl]-1H-pyrrolo[2,3-b]pyridin-4-yl]-2,2-dimethyl-but-3-ynamide] | 100 to 1000 | 100 to 1000
